From patent publication US7268245B2, “Multinuclear platinum compounds” (Sonus Pharmaceuticals, Inc., priority 2004, dated 2007) come the findings set out here.

Holding throughout (type): cell-based
Assay [1] has as its system HT29 colorectal carcinoma cell line. Briefly: MTS cell viability assay, growth inhibition, HT29. The conditions noted are these: HT29 cells, 72 hours of treatment. How it is done:
(§1) Cytotoxicity was measured in six cell lines: two colorectal carcinoma cell lines (HT29 and HCT-116); two small cell lung cancer cell lines (NCI-H69 and NCI-H69/AR); and two ovarian cancer cell lines (A2780 and A2780/DPPt). Viable cell number was measured using the MTS cell viability assay ([…] 96 AQueous One Solution Cell Proliferation Assay kit available from Promega, US). […] Cisplatin was prepared in saline. […] All tumor lines were propagated under sterile conditions and incubated at 37° C. in HEPA-filtered CO2 tissue culture incubators with 5% CO2 and 95% humidity in colorless RPMI 1640 medium (Mediatech, Herndon, Va.) containing 5% fetal bovine serum (complete medium). The ovarian and colon tumor cell lines were plated in microtiter plates at a density of 5,000 cells per well. The lung lines were plated at a density of 10,000 cells per well. Viable cell number was measured by the MTS dye conversion assay after a total of 72 hours of treatment. […] The plates were incubated for four hours at 37° C. The absorbance was measured at 490 nm on a Coulter microplate reader.
For orientation: Formazan colour is commonly taken as a measure of viable cells.

Assay [2] concerns NCI-H69 small cell lung cancer cell line. Kind of assay: MTS cell viability assay, growth inhibition, NCI-H69. The conditions noted are these: NCI-H69 cells, 72 hours of treatment. How it is done:
as §1

Assay [3] has as its system HCT-116 colorectal carcinoma cell line. Kind of assay: MTS cell viability assay, growth inhibition, HCT-116. The conditions noted are these: HCT-116 cells, 72 hours of treatment. Here is the method: as §1
The test system of assay [4] is NCI-H69/AR small cell lung cancer cell line. Briefly: MTS cell viability assay, growth inhibition, NCI-H69/AR. The conditions noted are these: NCI-H69/AR cells, 72 hours of treatment. How it is done: as §1
The subject of assay [5] is A2780/DDPT ovarian cancer cell line (platinum resistant). Kind of assay: MTS cell viability assay, growth inhibition, A2780/DDPT. Here is the method: as §1
Assay [6] has as its system A2780 ovarian cancer cell line. Briefly: MTS cell viability assay, growth inhibition, A2780. The conditions noted are these: A2780 cells. How it is done:
as §1

Where [7] appears, read: A2780/DDPT cells, 72 hours of treatment, MTS, read-out: Growth Inhibition (GI50) A2780/DDPT.
The mark [8] stands for this setting: 72 hours of treatment, MTS, read-out: Growth Inhibition (GI50) A2780.
[9] abbreviates: A2780 (platinum resistant) cells, method of Example 10 (text of Examples 8 and 9), read-out: GI50 for A2780 (platinum resistant).
[10] abbreviates: method of Example 10 (text of Examples 8 and 9), read-out: GI50 for A2780.

Like-named read-outs stand apart in the source and are kept apart here. Where only a bound is given, the exact number is not on record here.

Take “diethylenetriamine-N,N,N′,N″,N″-pentaacetic-acid-diplatinum [DTPA-diplatinum]”: the GI50 in assay [1] was determined as 54 µM; in assay [2] it was 18 µM; in assay [3] it was 41 µM; in assay [4], 23 µM; in assay [5] (setting [7]), 62 µM; in assay [6] (setting [8]), 19 µM.
As for “1,3-Diamino-2-hydroxypropane-N,N,N′,N′-tetraacetic-acid-diplatinum [DAPTA-diplatinum]”, the GI50 in assay [1] is over 100 µM; in assay [2] it was 27 µM; in assay [3], 81 µM; in assay [4], 21 µM; in assay [5] (setting [7]), over 100 µM; in assay [6] (setting [8]), 20 µM.
Turning to “ethylene glycol-bis-(β-aminoethyl)-N,N,N′,N′-tetraacetic-acid-diplatinum [EGTA-diplatinum]”, the GI50 in assay [2], in assay [3], in assay [4] and in assay [6] (setting [8]) was over 100 µM in each case.
“diethylenetriamine-N,N,N′,N″,N″-pentaacetic-acid-triplatinum [DTPA-triplatinum]”: the results for the GI50 in assay [5] (setting [9]) and in assay [6] (setting [10]) were 63 µM and 19 µM, respectively.
On to “triethylene-tetraamine-N,N,N′,N″,N′″,N′″-hexaacetic-acid-diplatinum [TTHA-diplatinum]”, for which the GI50 in assay [1] is 53 µM; in assay [2] it was 9.3 µM; in assay [3], 23 µM; in assay [4], 16 µM; in assay [5] (setting [7]), 48 µM; in assay [6] (setting [8]), 7.1 µM.
Consider “triethylenetetraamine-N,N,N′,N″,N′″,N′″-hexaacetic-acid-tetraplatinum [TTHA-tetraplatinum]”, for which the GI50 amounted to 50 µM in assay [5] (setting [9]) and 7 µM in assay [6] (setting [10]).
For `N.N.[Cl][Pt][Cl]` [Cisplatin, cis-diaminedichloroplatinum (II), reference compound], the GI50 stood at 61 µM in assay [1]; 15 µM in assay [2]; 43 µM in assay [3]; 15 µM in assay [4]; 57 µM in assay [5] (setting [9]); 57 µM in assay [5] (setting [7]). In addition, the GI50 in assay [6] (setting [8]) and in assay [6] (setting [10]) was 15 µM each time.
